Reference: patent US20230372318A1, “METHODS FOR TREATING A SUBJECT HAVING MULTIPLE SYSTEM ATROPHY” (Theravance Biopharma R&D IP, LLC, priority 2022, published 2023)

Tests used:
human recombinant DAT [1] = molecular target: T1, human recombinant DAT (Homo sapiens, UniProt Q01959); test: Neurotransmitter uptake inhibition, [3H]-DA, hDAT cells; format: cell-based; conditions: mean, 3 to 9 experiments
T1 construct: expressed in transfected cells; host or cells: CHO-K1
Excerpt: (§1) The in vitro pharmacology of ampreloxetine at human recombinant and rat native monoamine transporters was characterized as described in Smith et al., Inter. J. Neuropsychopharmcol. (2015) 1-11; and Tsuruda et al., J. Pharmacol. Toxicol. Meth. (2010) 61:192-204. See also, e.g., U.S. Pat. Nos. 8,304,432 B2 and 8,304,433 B2. Radioligands were sourced commercially (Perkin Elmer LifeSciences or GE Healthcare Life Sciences).
(§2) Briefly, membranes prepared from HEK293 (Human Embryonic Kidney 293) or CHO-K1 (Chinese Hamster Ovary-K1) cells stably transfected with human recombinant SERT (HEK293-hSERT), NET (HEK293-hNET), or DAT (CHO-K1-hDAT) were incubated for 1 hr at 22° C. in the absence, or presence, of 4-[2-(2,4,6-trifluorophenoxymethyl)phenyl]piperidine and [^3H]-citalopram (1.0 nM) for SERT, [^3H]-nisoxetine (2.0 nM) for NET, and [^3H]-WIN35428 (3.0 nM) for DAT in 50 mM Tris-HCl, 120 mM NaCl, 5 mM KCl, 0.025% BSA, 100 μM ascorbic acid, pH 7.4. Rat cortical membrane preparations were incubated with [^3H]-citalopram (2.0 nM) for SERT or [^3H]-nisoxetine (4.0 nM) for NET for 1 hr at 22° C. […] Binding and uptake assays were terminated by rapid filtration and radioactivity determined by liquid scintillation spectroscopy. […] Selectivity for NET (rounded to one significant figure) was determined as follows: […]

rat native NET = test: [3H]-NE uptake inhibition, rat cortical synaptosomes; format: biochemical; conditions: [3H]-NE vs [3H]-5-HT uptake
Excerpt: as §1, §2

rat native DAT = molecular target: T2, rat native DAT (Rattus norvegicus, UniProt P23977); test: [3H]-DA uptake inhibition, rat striatal synaptosomes; format: biochemical; conditions: mean
T2 construct: human recombinant and rat native monoamine transporters; from tissue; host or cells: rat striatum (synaptosomes)
Excerpt: as §1, §2

human recombinant DAT [2] = molecular target: T1, human recombinant DAT; test: Radioligand binding, [3H]-WIN35428, CHO-K1-hDAT membranes; conditions: mean
Excerpt: as §1, §2

SERT = molecular target: T3, SERT (Rattus norvegicus, UniProt P31652); test: Ex vivo transporter occupancy in rat spinal cord (SERT)
T3 construct: from tissue; host or cells: lumbar spinal cord of orally dosed male Sprague Dawley rats
Protocol: Adult male Sprague Dawley rats (Charles River) were housed under controlled laboratory conditions (temperature at 21±1° C.) on a 12:12 hour light-dark cycle. Animals were given free access to food and water upon arrival to the facility and animals were acclimatized to their holding room for at least 48 hours. Animals were fasted but allowed free access to water for 15-18 hours prior to dosing.
Rats (n=6/timepoint/dose level) received a single oral dose of 4-[2-(2,4,6-trifluorophenoxymethyl)phenyl]piperidine (0.3, 1, 5, 10, 30, and 60 mg/kg) and were euthanized by decapitation at specified time points (0.5, 2, 4, 6, and 8 hr for 5 mg/kg dose level; 2 hr for 0.3, 1, 10, 30, and 60 mg/kg dose levels) post-administration. Spinal cords were dissected for ex vivo transporter occupancy and PK assessments from the same animals. The spinal cord was harvested by hydraulic extrusion using phosphate-buffered saline, and the lumbar segment dissected and frozen on dry ice. The remaining spinal cord segments were collected and homogenized in water (25% w/w) for PK analysis. All samples were stored at −80° C. until analysis.
A kinetic radioligand binding assay was used to determine NET and SERT occupancy in rat spinal cord, as described previously in Bourdet et al., J. Pharm. Exp. Ther. (2012) 341:137-145. PK/PD parameters were estimated by a compartmental modeling approach (WinNonlin Version 5.0.1, Pharsight Corporation). One- and two-compartment PK models with first-order absorption and elimination were evaluated. The one-compartment model was selected. The pharmacodynamics model was an effect compartment Emax model linked directly to the central PK compartment (WinNonlin PK Model 3, PD Model 101). Selection of models was based upon best fit in terms of visual inspection, Akaike Information Criteria, and weighted residual sum of squares using the Gauss-Newton minimization method.

plasma protein [3] = test: Plasma protein binding, rat; format: in vitro ADME
plasma protein [4] = test: Plasma protein binding, human; format: in vitro ADME
norepinephrine (NE) = test: Plasma norepinephrine levels in Examples 6 and 7; format: in vivo, human; conditions: for NE at End of Ex. 6/Start of Ex. 7: 4 weeks; for NE at End of Ex. 6/Start of Ex. 7 / NE on Day 29 of Ex. 7 Open Label: mean ± SD
Protocol: For pharmacodynamic assessments, blood samples for pharmacodynamic markers (including [dihydroxyphenylglycol] DHPG and NE) were collected after the subject had been seated for approximately 30 minutes.
Blood samples for pharmacodynamic markers ([dihydroxyphenylglycol] DHPG and NE) were collected at select study visits as defined in the Schedule of Study Procedures after the subject had been seated for 30 minutes. This was applicable to all consenting subjects.
Moreover, it has also been discovered that the supine norepinephrine level in a subject having multiple system atrophy continues to increase for at least about 8 weeks when the subject is treated daily with ampreloxetine as shown in Table 8:
Before treatment with ampreloxetine, supine norepinephrine (NE) levels in subjects with MSA are less than about 350 pg/mL. After about 8 weeks of treatment, supine norepinephrine levels are greater than about 500 pg/mL. Supine norepinephrine levels were determined using standard procedures (see, e.g., Goldstein et al., Annals of Neurology, 1989:26(4) 558-563; and Palma et al., Neurology, 2018:91(16) e1539-e1544).

[5] = human, cited from earlier work

T3 sequence (P31652 whole entry): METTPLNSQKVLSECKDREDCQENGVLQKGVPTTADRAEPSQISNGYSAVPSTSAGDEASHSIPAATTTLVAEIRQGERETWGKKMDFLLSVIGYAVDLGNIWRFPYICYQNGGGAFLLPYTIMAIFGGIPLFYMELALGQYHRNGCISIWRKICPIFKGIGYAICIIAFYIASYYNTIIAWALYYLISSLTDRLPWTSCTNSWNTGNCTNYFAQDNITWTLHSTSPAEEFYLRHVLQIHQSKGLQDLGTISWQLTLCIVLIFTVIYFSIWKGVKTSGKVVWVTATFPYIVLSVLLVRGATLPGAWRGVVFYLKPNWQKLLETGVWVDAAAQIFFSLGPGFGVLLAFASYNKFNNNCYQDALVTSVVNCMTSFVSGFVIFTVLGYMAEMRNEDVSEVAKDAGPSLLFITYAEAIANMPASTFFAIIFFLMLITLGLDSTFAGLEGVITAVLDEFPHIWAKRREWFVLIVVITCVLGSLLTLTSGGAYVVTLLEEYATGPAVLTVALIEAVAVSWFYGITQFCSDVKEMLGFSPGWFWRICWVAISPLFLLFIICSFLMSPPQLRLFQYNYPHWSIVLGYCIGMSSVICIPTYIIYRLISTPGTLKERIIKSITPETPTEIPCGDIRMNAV
T1 sequence (Q01959 whole entry): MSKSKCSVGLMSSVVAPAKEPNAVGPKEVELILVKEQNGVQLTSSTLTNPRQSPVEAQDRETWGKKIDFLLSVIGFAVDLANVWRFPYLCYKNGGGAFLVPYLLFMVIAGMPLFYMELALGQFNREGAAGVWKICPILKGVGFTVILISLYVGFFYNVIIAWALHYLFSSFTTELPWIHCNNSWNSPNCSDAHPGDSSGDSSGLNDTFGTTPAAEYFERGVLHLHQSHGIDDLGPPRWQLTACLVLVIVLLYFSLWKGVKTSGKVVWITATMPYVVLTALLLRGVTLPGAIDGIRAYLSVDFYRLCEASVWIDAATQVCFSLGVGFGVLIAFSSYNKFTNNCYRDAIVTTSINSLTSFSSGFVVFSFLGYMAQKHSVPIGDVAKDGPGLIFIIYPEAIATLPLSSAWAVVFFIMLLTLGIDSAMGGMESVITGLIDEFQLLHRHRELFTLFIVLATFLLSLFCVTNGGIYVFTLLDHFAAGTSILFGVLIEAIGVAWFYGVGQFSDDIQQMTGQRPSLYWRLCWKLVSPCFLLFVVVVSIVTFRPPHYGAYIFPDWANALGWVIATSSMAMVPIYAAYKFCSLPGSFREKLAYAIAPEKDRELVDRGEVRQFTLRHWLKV
T2 sequence (P23977 whole entry): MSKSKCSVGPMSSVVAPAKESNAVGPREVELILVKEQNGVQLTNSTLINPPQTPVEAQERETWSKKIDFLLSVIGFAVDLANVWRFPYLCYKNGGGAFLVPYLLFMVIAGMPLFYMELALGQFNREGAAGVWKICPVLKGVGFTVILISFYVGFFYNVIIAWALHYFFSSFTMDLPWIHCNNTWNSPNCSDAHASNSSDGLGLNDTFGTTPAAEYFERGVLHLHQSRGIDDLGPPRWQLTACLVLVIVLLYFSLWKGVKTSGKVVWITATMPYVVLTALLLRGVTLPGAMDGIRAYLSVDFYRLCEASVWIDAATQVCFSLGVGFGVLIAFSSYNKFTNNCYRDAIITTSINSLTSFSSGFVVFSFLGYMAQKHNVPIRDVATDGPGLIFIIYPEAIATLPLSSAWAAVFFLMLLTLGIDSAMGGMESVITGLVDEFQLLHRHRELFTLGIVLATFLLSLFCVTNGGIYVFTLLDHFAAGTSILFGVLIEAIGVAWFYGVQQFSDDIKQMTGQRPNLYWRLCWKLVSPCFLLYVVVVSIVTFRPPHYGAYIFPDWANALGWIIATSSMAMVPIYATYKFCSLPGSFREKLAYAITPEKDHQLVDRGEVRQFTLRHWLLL

Fc1cc(F)c(OCc2ccccc2C2CCNCC2)c(F)c1 [Ampreloxetine, 4-[2-(2,4,6-trifluorophenoxymethyl)phenyl]piperidine]
Neurotransmitter Uptake Inhibition: pIC50, DAT (human recombinant DAT [1]): 6.8
Apparent functional selectivity for NET over SERT (rat native NET): 10 fold
Neurotransmitter Uptake Inhibition: pIC50, DAT (rat native DAT): 6.9
Transporter Binding: pKi, DAT (human recombinant DAT [2]): 6.7
EC50, plasma concentration associated with 50% SERT occupancy (SERT; rat spinal cord, oral dose): 0.0508 µg/mL
Emax, maximal SERT occupancy in spinal cord (SERT; rat, single oral dose, effect compartment PK/PD model): 79.0 % occupancy
keo, first-order equilibration rate constant, SERT (SERT; rat, central PK compartment to effect compartment): 11.0 h⁻¹
Plasma protein binding (plasma protein [3]): 90.2%
Plasma protein binding (plasma protein [4]): 79.1%
NE at End of Ex. 6/Start of Ex. 7 (norepinephrine (NE); MSA, Example 6 ampreloxetine 10 mg QD group, start of Ex. 6: 280 ± 138): 439 ± 250 pg/mL
NE on Day 29 of Ex. 7 Open Label (norepinephrine (NE); MSA, Example 6 ampreloxetine 10 mg QD group, about 8 weeks): 539 ± 361 pg/mL
NE on Day 29 of Ex. 7 Open Label (norepinephrine (NE); MSA, Example 6 placebo group, received ampreloxetine in open-label part, start of Ex. 7: 291 ± 173): 557 ± 298 pg/mL
NE at End of Ex. 6/Start of Ex. 7 (norepinephrine (NE); PAF, Example 6 ampreloxetine 10 mg QD group, start of Ex. 6: 232 ± 110): 357 ± 204 pg/mL
NE on Day 29 of Ex. 7 Open Label (norepinephrine (NE); PAF, Example 6 ampreloxetine 10 mg QD group, about 8 weeks): 455 ± 238 pg/mL
NE on Day 29 of Ex. 7 Open Label (norepinephrine (NE); PAF, Example 6 placebo group, received ampreloxetine in open-label part, start of Ex. 7: 156 ± 82): 267 ± 87 pg/mL
NE at End of Ex. 6/Start of Ex. 7 (norepinephrine (NE); PD, Example 6 ampreloxetine 10 mg QD group, start of Ex. 6: 340 ± 237): 407 ± 154 pg/mL
NE on Day 29 of Ex. 7 Open Label (norepinephrine (NE); PD, Example 6 ampreloxetine 10 mg QD group, about 8 weeks): 552 ± 270 pg/mL
NE on Day 29 of Ex. 7 Open Label (norepinephrine (NE); PD, Example 6 placebo group, received ampreloxetine in open-label part, start of Ex. 7: 340 ± 266): 443 ± 157 pg/mL
Supine norepinephrine levels (norepinephrine (NE); subjects with MSA, after about 8 weeks of treatment, before treatment less than about 350): greater than 500 pg/mL
Dose proportionality of Cmax and AUC ([5]; administered doses): linear with near dose proportional exposure
Time to steady state ([5]; once daily dosing): ≤ 6 days
